These results are taken from article doi:10.1101/2021.04.08.439011v1 (biorxiv, 2021).

One assay concerns the target ALK (Homo sapiens, UniProt Q9UM73). The note with it: 0.1 µM; binder.
A further assay deals with ARK5 (Homo sapiens, UniProt O60285). The note with it: 0.1 µM; binder.
The target in a further assay is AURKC (Homo sapiens, UniProt Q9UQB9). The note with it: 0.1 µM; binder.
The next assay deals with BIKE (Homo sapiens, UniProt Q9NSY1). The note with it: 0.1 µM; binder.
Another assay deals with BMPR2 (Homo sapiens, UniProt Q13873). Conditions: 0.1 µM; binder.
The next assay has as its target CAMK4 (Homo sapiens, UniProt Q16566). The note with it: 0.1 µM; binder.
The target in another assay is CASK (Homo sapiens, UniProt O14936). The note with it: 0.1 µM; binder.
The next assay addresses EGFR(G719C) (Homo sapiens, UniProt P00533, G719C). Conditions: 0.1 µM; binder.
In the next assay the target is FES (Homo sapiens, UniProt P07332). The note with it: 0.1 µM; binder.
In the next assay the target is T1, FLT3 (Homo sapiens, UniProt P36888).
T1 sequence (P36888 1-993): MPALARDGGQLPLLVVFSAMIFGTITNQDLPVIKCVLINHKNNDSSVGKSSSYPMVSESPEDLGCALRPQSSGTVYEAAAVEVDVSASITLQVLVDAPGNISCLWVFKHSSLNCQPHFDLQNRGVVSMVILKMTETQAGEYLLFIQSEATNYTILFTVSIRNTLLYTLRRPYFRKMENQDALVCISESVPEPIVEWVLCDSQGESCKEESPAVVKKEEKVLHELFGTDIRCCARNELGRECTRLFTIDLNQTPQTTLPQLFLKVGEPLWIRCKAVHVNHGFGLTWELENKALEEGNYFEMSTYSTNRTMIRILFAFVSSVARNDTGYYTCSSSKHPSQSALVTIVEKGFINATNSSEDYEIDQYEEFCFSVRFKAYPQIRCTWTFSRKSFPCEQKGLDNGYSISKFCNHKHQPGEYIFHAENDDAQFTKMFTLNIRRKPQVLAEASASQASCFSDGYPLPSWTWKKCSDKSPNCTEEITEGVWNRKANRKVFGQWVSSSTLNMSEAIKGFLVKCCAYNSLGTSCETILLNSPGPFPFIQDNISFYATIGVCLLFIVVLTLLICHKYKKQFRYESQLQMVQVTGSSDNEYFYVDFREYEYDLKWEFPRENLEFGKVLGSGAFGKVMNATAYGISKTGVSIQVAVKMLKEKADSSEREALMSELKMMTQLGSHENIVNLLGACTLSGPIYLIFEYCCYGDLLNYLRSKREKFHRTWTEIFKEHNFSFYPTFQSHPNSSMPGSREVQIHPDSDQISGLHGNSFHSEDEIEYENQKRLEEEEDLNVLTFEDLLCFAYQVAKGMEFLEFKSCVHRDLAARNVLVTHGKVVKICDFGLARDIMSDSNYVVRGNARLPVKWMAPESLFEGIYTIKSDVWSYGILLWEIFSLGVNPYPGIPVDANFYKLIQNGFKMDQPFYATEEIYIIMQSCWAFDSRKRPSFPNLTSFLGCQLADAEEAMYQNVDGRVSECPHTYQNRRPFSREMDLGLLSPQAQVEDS
The note with it: 0.1 µM, binder.

The next assay deals with HASPIN (Homo sapiens, UniProt Q8TF76). Conditions: 0.1 µM; binder.
For a further assay, the target named is IKK-alpha (Homo sapiens, UniProt O15111). Conditions: 0.1 µM; binder.
A further assay deals with MARK4 (Homo sapiens, UniProt Q96L34). Conditions: 0.1 µM; binder.
The target of another assay is PAK7 (Homo sapiens, UniProt Q9P286). The note with it: 0.1 µM; binder.
Another assay concerns the target PFTAIRE2 (Homo sapiens, UniProt Q96Q40). The note with it: 0.1 µM; binder.
The target in a further assay is PRKG1 (Homo sapiens, UniProt Q13976). Conditions: 0.1 µM; binder.
For a further assay, the target named is PRKG2 (Homo sapiens, UniProt Q13237). The note with it: 0.1 µM; binder.
For a further assay, the target named is RIPK4 (Homo sapiens, UniProt P57078). Conditions: 0.1 µM; binder.
The target of a further assay is SRPK3 (Homo sapiens, UniProt Q9UPE1). The note with it: 0.1 µM; binder.
For the next assay, the target named is SgK110 (Homo sapiens, UniProt P0C264). Conditions: 0.1 µM; binder.
The next assay deals with TGFBR1 (Homo sapiens, UniProt P36897). Conditions: 0.1 µM; binder.
The target of another assay is TNIK (Homo sapiens, UniProt Q9UKE5). The note with it: 0.1 µM; binder.

Like-named read-outs stand apart in the source and are kept apart here.

CAMK4, sequence (Q16566 whole entry): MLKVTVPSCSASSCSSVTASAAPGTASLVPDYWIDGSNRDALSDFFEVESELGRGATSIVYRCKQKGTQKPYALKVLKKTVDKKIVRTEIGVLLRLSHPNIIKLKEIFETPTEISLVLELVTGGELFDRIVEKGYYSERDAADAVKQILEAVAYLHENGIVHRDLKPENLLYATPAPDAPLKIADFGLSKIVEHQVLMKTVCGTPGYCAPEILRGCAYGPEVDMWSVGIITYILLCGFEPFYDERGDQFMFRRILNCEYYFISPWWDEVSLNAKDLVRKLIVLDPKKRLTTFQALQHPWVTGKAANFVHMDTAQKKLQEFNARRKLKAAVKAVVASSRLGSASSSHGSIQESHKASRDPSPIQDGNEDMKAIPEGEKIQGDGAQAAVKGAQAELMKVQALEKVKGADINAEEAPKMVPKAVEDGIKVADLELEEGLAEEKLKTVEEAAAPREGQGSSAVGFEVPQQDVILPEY
PRKG2, sequence (Q13237 whole entry): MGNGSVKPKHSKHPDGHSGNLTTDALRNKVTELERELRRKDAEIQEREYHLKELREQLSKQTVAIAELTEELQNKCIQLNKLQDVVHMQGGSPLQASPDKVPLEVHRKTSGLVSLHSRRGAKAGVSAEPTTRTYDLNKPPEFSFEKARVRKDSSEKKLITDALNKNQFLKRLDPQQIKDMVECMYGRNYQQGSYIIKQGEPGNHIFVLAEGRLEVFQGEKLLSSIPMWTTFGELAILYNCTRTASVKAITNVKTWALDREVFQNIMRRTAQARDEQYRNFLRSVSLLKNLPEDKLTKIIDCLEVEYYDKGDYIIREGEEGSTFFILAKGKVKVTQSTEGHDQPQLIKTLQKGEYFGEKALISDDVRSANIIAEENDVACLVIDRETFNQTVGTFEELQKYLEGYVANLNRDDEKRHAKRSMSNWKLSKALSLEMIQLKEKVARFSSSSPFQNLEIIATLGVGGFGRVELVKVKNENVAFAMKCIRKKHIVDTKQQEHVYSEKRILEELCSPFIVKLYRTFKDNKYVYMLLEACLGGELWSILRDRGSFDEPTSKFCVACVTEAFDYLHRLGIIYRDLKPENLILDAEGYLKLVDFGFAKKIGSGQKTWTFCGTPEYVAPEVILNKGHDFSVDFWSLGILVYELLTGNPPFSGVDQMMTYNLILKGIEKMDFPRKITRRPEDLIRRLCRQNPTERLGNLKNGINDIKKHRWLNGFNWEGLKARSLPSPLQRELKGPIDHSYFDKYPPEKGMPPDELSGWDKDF
PAK7, sequence (Q9P286 whole entry): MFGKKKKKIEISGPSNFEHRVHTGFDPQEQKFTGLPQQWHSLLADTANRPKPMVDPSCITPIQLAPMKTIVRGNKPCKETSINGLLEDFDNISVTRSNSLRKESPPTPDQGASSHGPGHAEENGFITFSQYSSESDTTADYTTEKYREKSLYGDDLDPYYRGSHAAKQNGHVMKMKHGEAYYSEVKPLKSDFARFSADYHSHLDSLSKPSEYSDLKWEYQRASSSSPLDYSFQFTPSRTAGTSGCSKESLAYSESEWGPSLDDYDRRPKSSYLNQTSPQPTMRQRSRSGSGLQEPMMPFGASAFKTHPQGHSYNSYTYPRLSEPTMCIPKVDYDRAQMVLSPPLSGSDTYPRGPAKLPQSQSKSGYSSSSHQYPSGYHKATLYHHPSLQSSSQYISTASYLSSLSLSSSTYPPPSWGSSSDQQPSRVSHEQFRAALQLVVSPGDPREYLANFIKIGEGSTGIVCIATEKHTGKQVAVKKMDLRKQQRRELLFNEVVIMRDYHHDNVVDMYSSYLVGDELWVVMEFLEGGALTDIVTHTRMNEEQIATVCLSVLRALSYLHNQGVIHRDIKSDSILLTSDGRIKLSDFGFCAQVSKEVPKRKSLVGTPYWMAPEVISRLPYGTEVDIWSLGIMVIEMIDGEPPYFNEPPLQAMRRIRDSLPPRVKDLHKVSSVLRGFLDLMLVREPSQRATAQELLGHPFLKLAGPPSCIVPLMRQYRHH
CASK, sequence (O14936 whole entry): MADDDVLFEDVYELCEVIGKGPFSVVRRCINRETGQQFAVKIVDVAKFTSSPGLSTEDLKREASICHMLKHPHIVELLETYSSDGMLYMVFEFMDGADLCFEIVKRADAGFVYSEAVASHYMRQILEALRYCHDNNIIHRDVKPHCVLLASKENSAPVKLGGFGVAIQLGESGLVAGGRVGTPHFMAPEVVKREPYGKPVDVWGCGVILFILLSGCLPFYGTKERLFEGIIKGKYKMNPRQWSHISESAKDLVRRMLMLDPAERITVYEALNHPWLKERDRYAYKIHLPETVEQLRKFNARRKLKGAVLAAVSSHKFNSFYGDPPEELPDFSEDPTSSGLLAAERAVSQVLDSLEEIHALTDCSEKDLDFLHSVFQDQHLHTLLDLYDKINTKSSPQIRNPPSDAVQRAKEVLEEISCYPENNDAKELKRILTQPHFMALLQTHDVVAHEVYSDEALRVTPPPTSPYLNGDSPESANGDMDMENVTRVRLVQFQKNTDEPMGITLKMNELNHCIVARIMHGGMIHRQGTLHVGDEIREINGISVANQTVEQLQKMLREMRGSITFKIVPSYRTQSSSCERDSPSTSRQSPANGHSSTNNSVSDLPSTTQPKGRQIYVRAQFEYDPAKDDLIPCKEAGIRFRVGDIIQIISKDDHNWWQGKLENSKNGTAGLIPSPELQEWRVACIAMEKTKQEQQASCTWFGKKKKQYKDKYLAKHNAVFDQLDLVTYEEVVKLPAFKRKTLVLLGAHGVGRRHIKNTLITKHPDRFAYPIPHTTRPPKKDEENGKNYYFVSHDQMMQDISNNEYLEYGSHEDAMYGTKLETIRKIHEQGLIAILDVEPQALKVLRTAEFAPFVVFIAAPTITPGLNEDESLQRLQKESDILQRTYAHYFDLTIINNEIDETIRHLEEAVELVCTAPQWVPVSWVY
RIPK4, sequence (P57078 whole entry): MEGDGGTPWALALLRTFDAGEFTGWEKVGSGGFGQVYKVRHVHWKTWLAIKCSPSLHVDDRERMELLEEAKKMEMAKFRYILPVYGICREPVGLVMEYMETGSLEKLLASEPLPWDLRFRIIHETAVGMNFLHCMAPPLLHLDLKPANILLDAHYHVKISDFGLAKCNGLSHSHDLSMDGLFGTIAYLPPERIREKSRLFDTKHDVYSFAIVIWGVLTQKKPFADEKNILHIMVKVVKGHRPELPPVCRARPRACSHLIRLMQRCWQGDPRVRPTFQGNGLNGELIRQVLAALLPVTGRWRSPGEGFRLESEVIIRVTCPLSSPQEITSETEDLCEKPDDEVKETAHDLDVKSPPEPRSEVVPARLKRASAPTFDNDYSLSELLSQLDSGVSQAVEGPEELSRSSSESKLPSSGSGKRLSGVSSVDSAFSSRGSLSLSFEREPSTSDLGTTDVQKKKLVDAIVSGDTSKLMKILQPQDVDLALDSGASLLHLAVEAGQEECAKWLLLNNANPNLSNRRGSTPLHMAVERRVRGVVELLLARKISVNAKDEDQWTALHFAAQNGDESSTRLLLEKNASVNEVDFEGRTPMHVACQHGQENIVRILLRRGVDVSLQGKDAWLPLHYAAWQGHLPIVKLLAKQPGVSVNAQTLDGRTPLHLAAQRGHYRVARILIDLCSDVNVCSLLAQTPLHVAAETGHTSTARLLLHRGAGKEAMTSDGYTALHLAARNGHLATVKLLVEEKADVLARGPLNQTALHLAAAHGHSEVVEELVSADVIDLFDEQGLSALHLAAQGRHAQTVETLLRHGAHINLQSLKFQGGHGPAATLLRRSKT
SRPK3, sequence (Q9UPE1 whole entry): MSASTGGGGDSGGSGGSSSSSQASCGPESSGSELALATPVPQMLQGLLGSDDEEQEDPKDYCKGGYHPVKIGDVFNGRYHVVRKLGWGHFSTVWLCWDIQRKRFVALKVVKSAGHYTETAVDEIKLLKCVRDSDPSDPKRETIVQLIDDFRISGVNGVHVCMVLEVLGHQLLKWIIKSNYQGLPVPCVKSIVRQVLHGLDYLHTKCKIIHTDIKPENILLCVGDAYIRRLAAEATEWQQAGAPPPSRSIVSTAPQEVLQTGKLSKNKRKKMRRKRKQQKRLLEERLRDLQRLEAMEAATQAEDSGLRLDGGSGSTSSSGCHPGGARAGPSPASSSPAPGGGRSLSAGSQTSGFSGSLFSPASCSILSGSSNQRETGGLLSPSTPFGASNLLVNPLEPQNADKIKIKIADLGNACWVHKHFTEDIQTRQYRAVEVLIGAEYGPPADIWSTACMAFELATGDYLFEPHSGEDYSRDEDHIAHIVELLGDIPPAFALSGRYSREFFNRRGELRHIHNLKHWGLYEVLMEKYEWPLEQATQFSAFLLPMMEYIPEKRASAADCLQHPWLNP
TGFBR1, sequence (P36897 whole entry): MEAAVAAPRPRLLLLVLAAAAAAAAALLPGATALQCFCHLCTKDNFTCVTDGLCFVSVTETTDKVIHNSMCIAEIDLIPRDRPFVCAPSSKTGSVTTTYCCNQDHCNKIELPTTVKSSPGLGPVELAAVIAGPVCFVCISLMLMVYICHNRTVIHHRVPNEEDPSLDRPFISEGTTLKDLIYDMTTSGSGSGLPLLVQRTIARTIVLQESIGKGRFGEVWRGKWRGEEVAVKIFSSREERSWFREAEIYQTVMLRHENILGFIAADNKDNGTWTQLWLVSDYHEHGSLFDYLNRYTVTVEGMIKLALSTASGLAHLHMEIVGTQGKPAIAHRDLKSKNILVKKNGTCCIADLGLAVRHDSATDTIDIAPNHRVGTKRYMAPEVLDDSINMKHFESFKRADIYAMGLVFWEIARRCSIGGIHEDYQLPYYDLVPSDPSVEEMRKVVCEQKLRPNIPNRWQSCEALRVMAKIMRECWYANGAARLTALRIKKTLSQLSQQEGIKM

With `CNc1ncc2cc(-c3ccc(-c4cccc(C)n4)cc3Cl)c(=O)n(C[C@H]3OC[C@H](N)CO3)c2n1` [compound 6, G-5555], the “Percent Control” value came to 89% on ALK; 87% at ARK5; 37% on AURKC; 100% on BIKE; 100% on BMPR2; 100% at CAMK4. The “Percent Control” value on CASK stood at 96%; on EGFR(G719C), 100%; on FES, 100%; on FLT3, 100%; on FLT3 (autoinhibited), 94%; on HASPIN, 87%. The “Percent Control” value on IKK-alpha amounted to 92%; at MARK4, 100%; at PAK7, 100%; at PFTAIRE2 it was 100%; at PRKG1 it was 100%; at PRKG2, 86%. For the same compound, the “Percent Control” value at RIPK4 is given as 97%; on SRPK3 it was 100%; at SgK110, 56%; at TGFBR1, 99%; at TNIK it was 100%.
